Laboratory results reported in US7491832B2, “Sulfonate compound and fluorescent probe using the same” (Osaka Industrial Promotion Organization, priority 2003, dated 2009).

Assays:
[1] = 96-well microplate assay, fluorescence response to H2O2; details: for response to H2O2 (in words): 96-well microplate assay; for detection limit for H2O2: 150 μl probe solution, 25° C., 60 minutes, RSD n=8; for detection limit for H2O2 / Fluorescence Intensity (RFU), H2O2: HEPES pH 7.4; for Fluorescence Intensity (RFU), H2O2: value minus intensity in the absence of H2O2, probe 1a 25 μM, 1b and 1c 5 μM; for slope of the linear calibration curve: H2O2 calibration, detection limit to 92.3 nmol; for upper end of the linear calibration range: linear from the detection limit upward
Experimental: In this assay, a DMSO solution of the compound 1a (10 mM), a DMSO solution of the compound 1b (2 mM), and a DMSO solution of the compound 1c (2 mM) were provided first and then these solutions were diluted 400-fold with a HEPES buffer solution (pH 7.4, 10 mM). Thus, probe solutions of the respective compounds were prepared. In the respective probe solutions, the concentration of the compound 1a was 25 μM, the concentration of the compound 1b was 5 μM, and the concentration of the compound 1c was 5 μM. Then, 150 μl of each of the probe solutions was allowed to react with H2O2 water (0.92 mM, 10 μl) at 25° C. for 60 minutes. The detection limits of the compounds 1a, 1b, and 1c were 46.0 (RSD, n=8; 1.2%), 23.1 (0.5%), and 4.6 (1.0%) pmol, respectively, which are all acceptable for cellular level detection. With regard to each of the compounds 1a, 1b, and 1c, a linear calibration curve with a correlation coefficient of at least 0.999 was obtained when the detected value was in the range from the detection limit to 92.3 nmol.
(§1) The fluorescence response to H2O2 achieved by each of the thus-obtained compounds 1a, 1b, and 1c was compared with that to HO. (a hydroxyl radical) and that to O2^−. (a superoxide). As a source of HO., the Fenton reaction between H2O2 (1 mM, 10 μl) and Fe^2+ (5 mM, 10 μl) was used. On the other hand, O2^−. was generated by causing an enzyme reaction between hypoxanthine (HPX) (1 mM, 10 μl) and xanthine oxidase (XO) (0.26 U/ml, 10 μl).
(§2) In Table 1, fluorescence responses observed after reacting the compounds 1a, 1b, and 1c with H2O2, HO., or O2^−. were compared with each other. Numbers in Table 1 represent the fluorescence intensity (RFU). Note here that the RFU is a value obtained by subtracting a fluorescence intensity obtained in the absence of H2O2 or HPX from the measured value.

[2] = microplate assay, fluorescence response to HO. from the Fenton reaction (H2O2 + Fe2+); details: for Fluorescence Intensity (RFU), H2O2 + Fe^2+: H2O2 (1 mM, 10 μl) + Fe2+ (5 mM, 10 μl) as HO. source, blank subtracted
Experimental: as §1, §2

[3] = microplate assay, fluorescence response in the HPX-XO system (O2-. source), with or without catalase or SOD; details: for Fluorescence Intensity (RFU), HPX + XO + catalase: HPX + XO with catalase (5000 U/ml, 10 μl); for Fluorescence Intensity (RFU), HPX + XO + catalase / Fluorescence Intensity (RFU), HPX + XO + SOD: blank subtracted; for Fluorescence Intensity (RFU), HPX + XO + SOD: HPX + XO with superoxide dismutase (10 μl); for fluorescence response in the HPX-XO system on addition of catalase (in words): catalase 5000 U/ml; for fluorescence response in the HPX-XO system on addition of catalase (in words) / fluorescence response in the HPX-XO system in the presence of SOD (in words): 10 μl; for Fluorescence Intensity (RFU), HPX + XO: hypoxanthine (1 mM, 10 μl) + xanthine oxidase (0.26 U/ml, 10 μl), blank without HPX subtracted; for fluorescence response in the HPX-XO system in the presence of SOD (in words): superoxide dismutase
Experimental: as §1, §2

[4] = microplate assay of the acetylated forms as hydrogen peroxide-detecting probe (esterase requirement); details: microplate assay similar to that of compounds 1
[5] = tested on: Chlamydomonas reinhardtii cells; assay: fluorescence response of probe-loaded alga cells stimulated with Cu2+, PQ or MB under light or in the dark; format: cell-based; details: FIG. 1; for fluorescence increment (in words) / selectivity for Cu2+ plus light conditions over PQ and MB (in words) / fluorescence response of loaded cells (in words): probe 25 μM; for fluorescence increment (in words): Cu2+ and irradiation with light; for fluorescence response of loaded cells (in words): incubation under irradiation with light in the presence of Cu2+, 60 minutes
Excerpt: Photic stimulation can cause oxidative stress in green algae. Stimulation with Cu^2+ causes intracellular generation of various ROS such as superoxides, hydrogen peroxide, and hydroxyl radicals. Furthermore, when alga cells are activated specifically by paraquat (PQ) or methylene blue (MB), oxidative stress can be caused by the generation of a superoxide or ^1O2. […] In order to load alga cells with the compounds 1a, 1b, and 1c, the derivatives 2a, 2b, and 2c (Scheme 3) as acetylated forms of the compounds 1a, 1b, and 1c were used.
More specifically, first, the compounds 2a, 2b, and 2c respectively were dissolved in DMSO, thus obtaining 10 mM stock solutions of the respective compounds. Next, Chlamydomonas reinhardtii (IAM C-238) cultured by an ordinary method was inoculated into 3 ml of an MBM culture solution. Thereafter, the MBM culture solution was loaded with 7.5 μl of each of the stock solutions of the compounds 2a, 2b, and 2c in the dark at 25° C. for 30 minutes. Thus, probe-loaded cell suspensions were prepared. Furthermore, a 96-well tissue culture plate was provided, and 50 μl of a MBM solution containing the indicated concentration of CuCl2, PQ, or […] was added to the plate. The probe-loaded cell suspension (50 μl) was inoculated to the plate and then incubated under irradiation with light or in the dark. After 60 minutes, fluorescence in the cells was measured using a fluorescence measuring device (trade name “CytoFluor II multiwell fluorescence plate reader”, PerSeptive Biosystems, USA). For the measurement, an excitation filter was set at 485±20 nm and an emission filter was set at 530±25 nm.
FIG. 1 contains graphs showing the correlation between a concentration and a fluorescence increment when the fluorescence response was measured by loading Chlamydomonas reinhardtii cells with the compound 2a, 2b, or 2c (25 μM) or DCFH-DA (50 μM) in the dark at 25° C. for 30 minutes and incubating them in 96-well microplates under irradiation with light or in the dark in the presence of Cu^2+, PQ, or MB for 60 minutes. In FIG. 1, an empty circle indicates the result obtained when the incubation was carried out under irradiation with light and a solid circle indicates the result obtained when the incubation was carried out in the dark.

Row | Structure (SMILES) | response to H2O2 (in words) [1] | detection limit for H2O2 [1] | Fluorescence Intensity (RFU), H2O2 [1] | slope of the linear calibration curve [1] | upper end of the linear calibration range [1] | response to HO. compared with that to H2O2 (in words) [2] | Fluorescence Intensity (RFU), H2O2 + Fe^2+ [2] | Fluorescence Intensity (RFU), HPX + XO + catalase [3] | Fluorescence Intensity (RFU), HPX + XO + SOD [3] | fluorescence response in the HPX-XO system on addition of catalase (in words) [3] | Fluorescence Intensity (RFU), HPX + XO [3] | fluorescence response in the HPX-XO system in the presence of SOD (in words) [3] | requirement of esterase to serve as hydrogen peroxide-detecting probe (in words) [4] | fluorescence increment (in words) [5] | selectivity for Cu2+ plus light conditions over PQ and MB (in words) [5] | fluorescence response of loaded cells (in words) [5] | detection of ROS on Cu2+ stimulation (in words) ([5]; DCFH-DA 50 μM) | detection of oxidative stress caused by PQ and MB (in words) ([5]; DCFH-DA 50 μM)
1 | O=C(O)c1ccccc1-c1c2ccc(=O)cc-2oc2cc(OS(=O)(=O)c3c(F)c(F)c(F)c(F)c3F)ccc12 [Compound 1a] | H2O2 concentration-dependent response | 46.0 pmol | 1150 RFU | 172 au/nmol | 92.3 nmol | much smaller than those to H2O2 | 28 RFU | −49 RFU | 899 RFU | eliminated completely | 566 RFU | maintained or increased | – | – | – | – | – | –
2 | CC(=O)Oc1cc2c(cc1F)C1(OC(=O)c3ccccc31)c1cc(F)c(OS(=O)(=O)c3c(F)c(F)c(F)c(F)c3F)cc1O2 (stereo not drawn) [Compound 2c] | – | – | – | – | – | – | – | – | – | – | – | – | esterase was necessary | great fluorescence increments | high selectivity | exhibited fluorescence response in a stimulation concentration-dependent manner | – | –
3 | CC(=O)Oc1cc2c(cc1Cl)C(c1ccccc1C(=O)O)c1cc(Cl)c(OC(C)=O)cc1O2 [DCFH-DA, reference compound] | – | – | – | – | – | – | – | – | – | – | – | – | – | – | – | – | detected ROS generated by the Cu^2+ stimulation | detected the oxidative stress caused by PQ and MB effectively
4 | CC(=O)Oc1ccc2c(c1)Oc1cc(OS(=O)(=O)c3c(F)c(F)c(F)c(F)c3F)ccc1C21OC(=O)c2ccccc21 (stereo not drawn) [Compound 2a] | – | – | – | – | – | – | – | – | – | – | – | – | esterase was necessary | great fluorescence increments | high selectivity | exhibited fluorescence response in a stimulation concentration-dependent manner | – | –
5 | O=C(O)c1ccccc1-c1c2cc(F)c(=O)cc-2oc2cc(OS(=O)(=O)c3c(F)c(F)c(F)c(F)c3F)c(F)cc12 [Compound 1c] | H2O2 concentration-dependent response | 4.6 pmol | 4375 RFU | 591 au/nmol | 92.3 nmol | much smaller than those to H2O2 | 184 RFU | −44 RFU | 3340 RFU | eliminated completely | 3580 RFU | maintained or increased | – | – | – | – | – | –
6 | CC(=O)Oc1cc2c(cc1Cl)C1(OC(=O)c3ccccc31)c1cc(Cl)c(OS(=O)(=O)c3c(F)c(F)c(F)c(F)c3F)cc1O2 (stereo not drawn) [Compound 2b] | – | – | – | – | – | – | – | – | – | – | – | – | esterase was necessary | – | – | exhibited fluorescence response in a stimulation concentration-dependent manner | – | –
7 | O=C(O)c1ccccc1-c1c2cc(Cl)c(=O)cc-2oc2cc(OS(=O)(=O)c3c(F)c(F)c(F)c(F)c3F)c(Cl)cc12 [Compound 1b] | H2O2 concentration-dependent response | 23.1 pmol | 2193 RFU | 215 au/nmol | 92.3 nmol | much smaller than those to H2O2 | 195 RFU | −51 RFU | 1733 RFU | eliminated completely | 1733 RFU | maintained or increased | – | – | – | – | – | –
